Results: patent publication US11840686B2, “Modulation of prekallikrein (PKK) expression” (Ionis Pharmaceuticals, Inc., priority 2013, dated 2023)
Strand notation (5' to 3'): a small letter for the sugar, then the base; units joined by * are phosphorothioate-linked, units joined directly phosphodiester-linked; [ ] holds rarer units or linkages, { } end groups; capitals alone tell only the bases. e = 2'-O-(2-methoxyethyl) (MOE); k = constrained ethyl (cEt); [5mC] = 5-methylcytosine; d = 2'-deoxy (DNA)

test system: human PKK mRNA; assay: Antisense inhibition of human PKK mRNA in HepaRG cells, 1,000 nM, MOE/deoxy/cEt oligonucleotides (Example 3); type: cell-based; settings: HepaRG cells, 1,000 nM antisense oligonucleotide, Table 29
Outline: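 HepaRG cells at 20,000 per well electroporated with 1,000 nM 16-mer MOE/cEt/deoxy gapmers (phosphorothioate, 5-methylcytosine). After about 24 h, PKK mRNA measured by qRT-PCR with primer probe set RTS3454, normalized to RIBOGREEN total RNA. Reported as percent inhibition versus untreated cells.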

Compared with “548603 (eG*eA*kG*dA*dT*dT*dG*dG*dT*dG*dG*dT*dG*kG*kG*eT; antisense) [compound 548603]”, “548588 (eA*eG*k[5mC]*dT*d[5mC]*dA*d[5mC]*dA*d[5mC]*d[5mC]*d[5mC]*dA*dA*kA*kA*eA; antisense) [compound 548588]” is lower in “% inhibition” value: 35% for the first, 10% for the second.

First: 548538 (antisense eT*eA*kG*dT*dG*dG*d[5mC]*dA*dA*dG*dA*dA*d[5mC]*k[5mC]*kA*e[5mC]) [compound 548538]
Second: 548581 (eG*eG*kT*dG*dG*dG*dT*dT*dA*dT*d[5mC]*dT*dG*kA*kG*eA; antisense) [compound 548581]
The “% inhibition” value of the first is lower: 0% for the first, 13% for the second.

same assay, conditions: HepaRG cells, electroporation with 1,000 nM antisense oligonucleotide, approx. 24 hours, PKK mRNA by RT-PCR (RTS3454), relative to untreated control cells; Table 25 experiment

First: 548159 (e[5mC]*eG*k[5mC]*dA*dT*dT*dG*dT*d[5mC]*dA*dG*d[5mC]*d[5mC]*k[5mC]*k[5mC]*eT; antisense) [compound 548159]
Second: 548173 (e[5mC]*eT*k[5mC]*dA*dG*dT*dT*dG*d[5mC]*dG*dA*d[5mC]*d[5mC]*kT*k[5mC]*eG; antisense) [compound 548173]
The “% inhibition” value of the first is higher: 59% for the first, 51% for the second.

Going from “548207 (e[5mC]*eT*kG*dG*dT*d[5mC]*dA*dA*dT*d[5mC]*dT*dG*dA*k[5mC]*kT*eA; antisense) [compound 548207]” to “548185 (eA*eA*k[5mC]*dA*d[5mC]*dA*d[5mC]*dA*dG*dT*d[5mC]*dA*dT*kG*kG*eA; antisense) [compound 548185]”, the “% inhibition” value falls from 60% to 23%.

same assay, conditions: HepaRG cells, electroporation with 1,000 nM antisense oligonucleotide, approx. 24 hours, PKK mRNA by RT-PCR (RTS3454), relative to untreated control cells; Table 26 experiment

Compared with “548259 (antisense eG*eT*kG*dA*dT*dG*dA*dA*dA*dG*dT*dA*d[5mC]*kA*kG*e[5mC]) [compound 548259]”, “548251 (antisense eG*e[5mC]*k[5mC]*dT*dT*dT*dG*dT*dG*dA*dT*dG*d[5mC]*kG*kA*eT) [compound 548251]” is lower in “% inhibition” value: 45% for the first, 13% for the second.

For “548244 (e[5mC]*eA*kT*dG*d[5mC]*dA*dT*dA*d[5mC]*dT*d[5mC]*dG*d[5mC]*k[5mC]*kT*eT; antisense) [compound 548244]”, the “% inhibition” value was 51%.

same assay, conditions: HepaRG cells, electroporation with 1,000 nM antisense oligonucleotide, approximately 24 hours, primer probe set RTS3454, relative to untreated control cells; experiment of Table 23

First: 547980 (antisense eA*eA*kG*dT*d[5mC]*dT*d[5mC]*dT*dT*dG*dG*d[5mC]*dA*kA*kA*e[5mC]) [compound 547980]
Second: 547957 (eG*eG*kT*dT*dA*dA*dA*dA*dG*dG*d[5mC]*dT*dA*kT*kA*eT; antisense) [compound 547957]
The “% inhibition” value of the first is higher: 54% for the first, 6% for the second.

Compared with “547972 (antisense eT*e[5mC]*kA*dA*d[5mC]*dT*d[5mC]*d[5mC]*d[5mC]*dG*dG*dG*dT*kA*kA*eA) [compound 547972]”, “547973 (antisense eA*eA*kG*dT*d[5mC]*dA*dA*d[5mC]*dT*d[5mC]*d[5mC]*d[5mC]*dG*kG*kG*eT) [compound 547973]” is higher in “% inhibition” value: 49% for the first, 62% for the second.

same assay, conditions: HepaRG cells, electroporation with 1,000 nM antisense oligonucleotide, approximately 24 hours, primer probe set RTS3454, relative to untreated control cells; experiment of Table 24

First: 548045 (eT*eT*kA*dT*dA*dG*dT*dT*dT*dT*dG*dG*dT*kG*kA*eA; antisense) [compound 548045]
Second: 548059 (eT*eA*kG*dG*d[5mC]*dA*dT*dA*dT*dT*dG*dG*dT*kT*kT*eT; antisense) [compound 548059]
The “% inhibition” value of the first is lower: 0% for the first, 50% for the second.

same assay, conditions: PKK mRNA, HepaRG cells, 1,000 nM antisense oligonucleotide; Table 31

First: 548631 (antisense e[5mC]*eT*k[5mC]*dA*d[5mC]*dA*dA*dT*dA*d[5mC]*dT*dG*dA*kG*k[5mC]*e[5mC]) [compound 548631]
Second: 548660 (antisense eA*eT*kG*d[5mC]*dT*dT*dA*d[5mC]*d[5mC]*dT*dT*dT*d[5mC]*kT*k[5mC]*e[5mC]) [compound 548660]
The “% inhibition” value of the first is higher: 55% for the first, 0% for the second.

Going from “548644 (antisense eA*eA*k[5mC]*dT*dG*dG*dG*d[5mC]*dA*dG*dT*d[5mC]*d[5mC]*kT*kT*e[5mC]) [compound 548644]” to “548685 (antisense eT*eA*kG*dT*d[5mC]*d[5mC]*dA*d[5mC]*dT*dA*d[5mC]*dA*d[5mC]*kA*kG*e[5mC]) [compound 548685]”, the “% inhibition” value rises from 14% to 24%.

Going from “548669 (antisense eA*eA*kT*dG*d[5mC]*dA*dG*dG*d[5mC]*d[5mC]*dA*dG*d[5mC]*kA*kT*e[5mC]) [compound 548669]” to “548677 (antisense eT*e[5mC]*kA*d[5mC]*d[5mC]*dT*dG*dT*dG*dA*dG*dT*dA*kA*k[5mC]*e[5mC]) [compound 548677]”, the “% inhibition” value falls from 42% to 40%.

same assay, conditions: Table 19; HepaRG cells, electroporation with 1,000 nM antisense oligonucleotide, approximately 24 hours; PKK mRNA by RT-PCR (RTS3454), relative to untreated control cells

First: 548115 (antisense e[5mC]*eA*kT*dG*d[5mC]*dT*dG*dG*dT*dG*dA*d[5mC]*dT*kG*k[5mC]*eA) [compound 548115]
Second: 548137 (eA*eG*kG*d[5mC]*dT*d[5mC]*dA*dG*dA*dA*dT*dT*dT*kG*kA*e[5mC]; antisense) [compound 548137]
The “% inhibition” value of the first is higher: 76% for the first, 62% for the second.

Going from “548138 (e[5mC]*e[5mC]*k[5mC]*d[5mC]*dA*dG*dG*d[5mC]*dT*d[5mC]*dA*dG*dA*kA*kT*eT; antisense) [compound 548138]” to “548130 (eA*eT*kT*dT*dG*dA*d[5mC]*dT*dT*dG*dA*dA*d[5mC]*kT*k[5mC]*eA; antisense) [compound 548130]”, the “% inhibition” value falls from 52% to 27%.

“548095 (antisense eT*eG*kT*dT*dT*dG*d[5mC]*dA*dA*dA*d[5mC]*dT*dA*kA*kG*eG) [compound 548095]” and “548129 (eT*eT*kT*dG*dA*d[5mC]*dT*dT*dG*dA*dA*d[5mC]*dT*k[5mC]*kA*eG; antisense) [compound 548129]” are the same in “% inhibition” value: 35% for the first, 35% for the second.

same assay, conditions: Table 20; HepaRG cells, electroporation with 1,000 nM antisense oligonucleotide, approximately 24 hours; PKK mRNA by RT-PCR (RTS3454), relative to untreated control cells

First: 547909 (e[5mC]*e[5mC]*kA*dA*dT*dT*dT*d[5mC]*dT*dG*dA*dA*dA*kG*kG*eG; antisense) [compound 547909]
Second: 547916 (e[5mC]*e[5mC]*kT*dG*dG*d[5mC]*dA*dA*d[5mC]*dA*dT*d[5mC]*d[5mC]*kA*k[5mC]*eA; antisense) [compound 547916]
The “% inhibition” value of the first is higher: 82% for the first, 70% for the second.

In the case of “547845 (antisense e[5mC]*eG*kA*dT*dG*dG*d[5mC]*dA*dA*dG*d[5mC]*dA*d[5mC]*kT*kT*eA) [compound 547845]”, the “% inhibition” value is reported as 0%.

same assay, conditions: Table 21 experiment; HepaRG cells, electroporation with 1,000 nM antisense oligonucleotide, approx. 24 hours; PKK mRNA by RT-PCR (RTS3454), relative to untreated control cells

Going from “547805 (eG*eG*kG*dT*dG*dT*dA*d[5mC]*dA*dT*dG*dG*dA*kA*kG*e[5mC]; antisense) [compound 547805]” to “547827 (eG*eT*kT*d[5mC]*dG*dA*dT*dG*dT*dA*d[5mC]*dT*dT*kT*kT*eG; antisense) [compound 547827]”, the “% inhibition” value falls from 54% to 47%.

First: 547832 (eA*e[5mC]*kT*dG*d[5mC]*dA*d[5mC]*d[5mC]*dT*dG*dT*dT*d[5mC]*kG*kA*eT; antisense) [compound 547832]
Second: 547785 (antisense eG*eT*kT*dG*d[5mC]*dT*dT*dG*d[5mC]*dT*dT*dG*dA*kA*kT*eA) [compound 547785]
The “% inhibition” value of the first is higher: 59% for the first, 48% for the second.

same assay, conditions: Table 22 experiment; HepaRG cells, electroporation with 1,000 nM antisense oligonucleotide, approx. 24 hours; PKK mRNA by RT-PCR (RTS3454), relative to untreated control cells

Compared with “547909 (e[5mC]*e[5mC]*kA*dA*dT*dT*dT*d[5mC]*dT*dG*dA*dA*dA*kG*kG*eG; antisense) [compound 547909]”, “547916 (e[5mC]*e[5mC]*kT*dG*dG*d[5mC]*dA*dA*d[5mC]*dA*dT*d[5mC]*d[5mC]*kA*k[5mC]*eA; antisense) [compound 547916]” is higher in “% inhibition” value: 51% for the first, 56% for the second.

With “547845 (antisense e[5mC]*eG*kA*dT*dG*dG*d[5mC]*dA*dA*dG*d[5mC]*dA*d[5mC]*kT*kT*eA) [compound 547845]” the “% inhibition” value was 64%.

same assay, conditions: Table 27; HepaRG cells, 1,000 nM antisense oligonucleotide; human PKK mRNA

First: 548353 (antisense e[5mC]*eT*kG*d[5mC]*dT*dG*dG*dT*dT*dG*dA*dG*dA*kA*kT*e[5mC]) [compound 548353]
Second: 548381 (e[5mC]*e[5mC]*k[5mC]*dA*d[5mC]*dT*dA*d[5mC]*d[5mC]*dA*dT*dT*dT*kG*kG*eG; antisense) [compound 548381]
The “% inhibition” value of the first is higher: 48% for the first, 0% for the second.

same assay, conditions: Table 28; HepaRG cells, 1,000 nM antisense oligonucleotide; human PKK mRNA

First: 548492 (antisense eG*e[5mC]*k[5mC]*d[5mC]*dA*dA*dT*dG*dT*d[5mC]*d[5mC]*dT*dA*kA*k[5mC]*e[5mC]) [compound 548492]
Second: 548509 (antisense eT*eG*k[5mC]*dA*dG*dG*dG*d[5mC]*dT*dG*d[5mC]*dG*d[5mC]*kA*kG*eT) [compound 548509]
The “% inhibition” value of the first is higher: 51% for the first, 41% for the second.

Going from “548493 (antisense e[5mC]*e[5mC]*kA*d[5mC]*d[5mC]*dG*d[5mC]*dT*dG*d[5mC]*d[5mC]*d[5mC]*dG*k[5mC]*k[5mC]*eA) [compound 548493]” to “548460 (e[5mC]*eT*kA*dT*dA*d[5mC]*d[5mC]*dA*d[5mC]*dG*dG*dT*dA*kA*k[5mC]*eT; antisense) [compound 548460]”, the “% inhibition” value falls from 37% to 0%.

same assay, conditions: Table 30; human PKK mRNA, HepaRG cells, 1,000 nM antisense oligonucleotide

First: 548384 (e[5mC]*eT*k[5mC]*dA*d[5mC]*d[5mC]*dG*dG*dT*dA*d[5mC]*dT*d[5mC]*kT*kG*e[5mC]; antisense) [compound 548384]
Second: 548426 (antisense eT*eA*kT*dA*dA*d[5mC]*dA*dG*dT*dA*dT*d[5mC]*dA*k[5mC]*kT*eG) [compound 548426]
The “% inhibition” value of the first is higher: 49% for the first, 14% for the second.

Compared with “548456 (eT*eA*kT*dA*dA*d[5mC]*dA*dG*dT*dA*dT*d[5mC]*dA*k[5mC]*k[5mC]*eG; antisense) [compound 548456]”, “548457 (e[5mC]*eT*kA*dT*dA*dA*d[5mC]*dA*dG*dT*dA*dT*d[5mC]*kA*k[5mC]*e[5mC]; antisense) [compound 548457]” is lower in “% inhibition” value: 52% for the first, 13% for the second.

For “548386 (eA*eG*k[5mC]*d[5mC]*d[5mC]*dT*dG*dT*dT*dT*dG*dG*dT*kT*kT*eT; antisense) [compound 548386]”, the “% inhibition” value was 0%.
